Test results as given in patent publication US9828379B2 (priority 2013, dated 2017).
≈ marks a conversion by molar mass, not a printed value.

Experiments:
[1] = biological target: T1, ABHD6 (Mus musculus, UniProt Q8R2Y0); assay: In vitro competitive activity-based protein profiling (Table 2, % inhibition at 1 μM); assay type: biochemical; conditions: read-out: % Inhibition at 1 μM ABHD6
T1 sequence (Q8R2Y0 1-336): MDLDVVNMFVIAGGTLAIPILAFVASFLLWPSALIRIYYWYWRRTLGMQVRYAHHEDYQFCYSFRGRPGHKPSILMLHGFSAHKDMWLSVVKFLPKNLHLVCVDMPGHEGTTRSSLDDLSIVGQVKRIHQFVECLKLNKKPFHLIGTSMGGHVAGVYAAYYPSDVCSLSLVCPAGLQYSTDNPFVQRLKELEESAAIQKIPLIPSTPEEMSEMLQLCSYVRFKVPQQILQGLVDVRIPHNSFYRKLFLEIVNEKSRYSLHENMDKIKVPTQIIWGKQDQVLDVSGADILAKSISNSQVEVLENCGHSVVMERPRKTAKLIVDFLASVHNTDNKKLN

[2] = biological target: T2, FAAH (Mus musculus, UniProt O08914); assay: as above; assay type: biochemical; conditions: read-out: % Inhibition at 1 μM FAAH
T2 sequence (O08914 1-579): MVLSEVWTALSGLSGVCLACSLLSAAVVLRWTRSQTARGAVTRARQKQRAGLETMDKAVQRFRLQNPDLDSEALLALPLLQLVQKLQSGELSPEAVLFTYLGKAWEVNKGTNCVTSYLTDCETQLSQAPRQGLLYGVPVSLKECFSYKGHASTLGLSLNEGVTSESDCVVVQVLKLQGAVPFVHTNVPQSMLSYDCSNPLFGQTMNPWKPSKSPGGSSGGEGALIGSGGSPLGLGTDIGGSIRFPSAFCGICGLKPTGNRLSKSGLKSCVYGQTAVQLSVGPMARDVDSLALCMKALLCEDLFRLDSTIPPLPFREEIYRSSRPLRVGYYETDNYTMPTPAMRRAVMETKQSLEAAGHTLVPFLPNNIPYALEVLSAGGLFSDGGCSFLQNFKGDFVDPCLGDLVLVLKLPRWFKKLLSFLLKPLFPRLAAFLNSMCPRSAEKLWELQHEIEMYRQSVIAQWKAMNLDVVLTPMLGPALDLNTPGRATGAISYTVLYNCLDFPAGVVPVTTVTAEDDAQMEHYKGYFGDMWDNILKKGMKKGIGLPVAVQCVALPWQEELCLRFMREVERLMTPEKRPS

[3] = biological target: T3, MAGL (Mus musculus, UniProt O35678); assay: as above; assay type: biochemical; conditions: read-out: % Inhibition at 1 μM MAGL
T3 sequence (O35678 1-303): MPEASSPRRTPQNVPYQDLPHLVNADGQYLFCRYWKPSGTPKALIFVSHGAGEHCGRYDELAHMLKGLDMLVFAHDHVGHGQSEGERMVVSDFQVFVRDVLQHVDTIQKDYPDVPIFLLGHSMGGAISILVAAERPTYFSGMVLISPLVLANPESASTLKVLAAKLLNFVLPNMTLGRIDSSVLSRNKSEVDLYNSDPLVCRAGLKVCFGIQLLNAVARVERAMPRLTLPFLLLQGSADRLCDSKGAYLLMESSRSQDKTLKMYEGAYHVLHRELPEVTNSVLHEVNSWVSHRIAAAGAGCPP
Experimental: After 30 min, FP—Rh (1.0 μL, 50 μM in DMSO) was added and the mixture was incubated for another 30 min at 37° C. Reactions were quenched with SDS loading buffer (50 μL-4×) and run on SDS-PAGE.
Cell lysates were diluted with mock proteomes for use in competitive ABPP experiments.

[4] = system: Mycobacterium tuberculosis H37Rv (pFCA-luxAB); assay: microbe, parasite or virus in culture; assay type: cell-based; conditions: for inhibition at 100 µM: read-out: % Inhibition at 100 μM Mtb LORA
[5] = system: Mycobacterium Tuberculosis (Mtb); assay: Microplate Alamar Blue assay (MABA) against Mtb; assay type: cell-based
Experimental: The activity of disclosed compounds against Mtb can be assessed according to a method based on the microplate Alamar Blue® assay (MABA) (Collins and Franzblau, 1997. Microplate alamar blue assay versus BACTEC 460 system for high-throughput screening of compounds against Mycobacterium tuberculosis and Mycobacterium avium. Antimicrobial Agents and Chemotherapy 41, 1004-1009). Briefly, stock solutions of disclosed compounds are prepared and added to, for example, two wells of a microplate. One well is inoculated with broth containing Mtb. The second well receives only media in order to assess background fluorescence. For MICs, serial dilutions are performed in media. Each microplate is incubated for a period of time. After incubation, one control growth is developed with a mixture of Alamar Blue® solution and Tween 80. The plates are then reincubated. Afterwards, if the well turns pink, the dye mixture is placed into all wells and the plates are reincubated for an additional period of time. The mean fluorescence units (FU) of media-only wells are subtracted from all other wells. The results are expressed in terms of % inhibition defined as 1-(test well FU/mean FU of triplicate bacteria-only wells)×100. The MIC is defined as the lowest concentration effecting a reduction in fluorescence of ≧90% relative to bacteria-only controls.

[6] = system: Trypanosoma brucei; assay: Alamar Blue assay against Trypanosoma brucei; assay type: cell-based; conditions: read-out: IC50 T. brucei
Excerpt: The ability of disclosed compounds to inhibit Trypanosoma brucei (T. brucei) can be assessed using the Alamar Blue® assay (Räz et al., 1997. The Alamar Blue® assay to determine drug sensitivity of African trypanosomes (T.b. rhodesiense and T.b. gambiense) in vitro. Acta Tropica 68, 139-147). Bloodstream form trypanosomes are cultivated in Minimum Essential Medium (MEM). Standard curves can be generated by serially diluting T. brucei in culture medium and measuring fluorescence and absorbance after a period of incubation with Alamar Blue®. A drug sensitivity assay can be performed as described for the LILIT (long incubation low inoculation test) previously described (Brun and Lun, 1994. Drug sensitivity of Chinese Trypanosoma evansi and Trypanosoma equiperdum isolates. Vet. Parasitol. 52, 37-46) with minor modifications. Briefly, bloodstream form trypanosomes can be inoculated into microtiter plates and incubated in the presence of various disclosed compound concentrations for a period of time. Background fluorescence and absorbance of the drug-containing medium are determined for each drug dilution. Wells without drug serve as controls. Alamar Blue® is added after a period of time and fluorescence and colorimetric development is later determined.

[7] = biological target: T1, ABHD6; assay: biochemical; conditions: in vitro competitive ABPP
[8] = biological target: T2, FAAH; assay: biochemical; conditions: in vitro competitive ABPP
[9] = biological target: T3, MAGL; assay: biochemical; conditions: mouse; in vitro competitive ABPP; read-out: Mouse (IC50 value, nM) MAGL
[10] = biological target: T4, Mouse brain MAGL (Mus musculus, UniProt O35678); assay: Mouse brain proteomes from inhibitor treated mice (oral gavage, ABPP analysis); assay type: in vivo; conditions: p.o., sacrificed 4 h following administration
T4 construct: from tissue; host or cells: brain of wild-type C57Bl/6J mice dosed by oral gavage
T4 sequence (O35678 1-303): T3 sequence (O35678 1-303)

| Compound | inhibition at 1 µM [1] [%] | inhibition at 1 µM [2] [%] | inhibition at 1 µM [3] [%] | inhibition at 100 µM [4] [%] | MIC [5] [µM] | IC50 [6] [nM] | MIC ([4]; read-out: MIC Mtb LORA) [µM] | IC50 [7] [nM] | IC50 [8] [nM] | IC50 [9] [nM] | inhibition at 5 mg/kg [10] [%] |
| --- | --- | --- | --- | --- | --- | --- | --- | --- | --- | --- | --- |
| O=C(ON1C(=O)CCC1=O)N1CC2CN(C(c3ccc(Cl)cc3)c3ccc(Cl)cc3)CC2C1 (stereo not drawn) [Example 83, 2,5-Dioxopyrrolidin-1-yl 5-[bis(4-chlorophenyl)methyl]-octahydropyrrolo[3,4-c]pyrrole-2-carboxylate] | < 25 | < 25 | 25 to 75 | > 80 | ≤ 50 |  |  |  |  |  |  |
| O=C(ON1C(=O)CCC1=O)N1CC2CN(Cc3ccc(Cl)cc3N3CCC4(CCOCC4)C3)CC2C1 (stereo not drawn) [Example 106, 2,5-Dioxopyrrolidin-1-yl 5-[(4-chloro-2-[8-oxa-2-azaspiro[4.5]decan-2-yl]phenyl)methyl]-octahydropyrrolo[3,4-c]pyrrole-2-carboxylate] | < 25 | < 25 | 25 to 75 |  |  | < 5000 |  |  |  |  |  |
| CNC(=O)C(OC(=O)N1CC2CN(Cc3ccc(-c4ccccc4)cc3)CC2C1)C(F)(F)F (stereo not drawn) [Example 126, 2,2,2-Trifluoro-1-(methylcarbamoyl)ethyl 5-[(4-phenylphenyl)methyl]-octahydropyrrolo[3,4-c]pyrrole-2-carboxylate] | < 25 | 25 to 75 | 25 to 75 | > 80 | 51 to 100 (≈ 23.5 to 46.1 µg/mL) |  |  |  |  |  |  |
| O=C(ON1C(=O)CCC1=O)N1CC2CN(Cc3ccc(-c4ccccc4)cc3)CC2C1 (stereo not drawn) [Example 84, 2,5-Dioxopyrrolidin-1-yl 5-[(4-phenylphenyl)methyl]-octahydropyrrolo[3,4-c]pyrrole-2-carboxylate] | 25 to 75 | > 75 | > 75 | > 80 | 51 to 100 (≈ 21.4 to 41.9 µg/mL) |  |  |  |  |  |  |
| CNC(=O)C(OC(=O)N1CC2CN(C(c3ccc(Cl)cc3)c3ccc(Cl)cc3)CC2C1)C(F)(F)F (stereo not drawn) [Example 125, 2,2,2-Trifluoro-1-(methylcarbamoyl)ethyl 5-[bis(4-chlorophenyl)methyl]-octahydropyrrolo[3,4-c]pyrrole-2-carboxylate] | < 25 | < 25 | 25 to 75 | > 80 | ≤ 50 |  |  |  |  |  |  |
| O=C(OC(C(F)(F)F)C(F)(F)F)N1CC2CN(Cc3ccc(-c4ccccc4)cc3)CC2C1 (stereo not drawn) [Example 9, 1,1,1,3,3,3-Hexafluoropropan-2-yl 5-[(4-phenylphenyl)methyl]-octahydropyrrolo[3,4-c]pyrrole-2-carboxylate] | 25 to 75 | 25 to 75 | > 75 | > 80 | ≤ 50 |  | ≤ 50 |  |  |  |  |
| CCn1cc(CN2CC3CN(C(=O)OC(C(F)(F)F)C(F)(F)F)CC3C2)c(-c2cccc(N3CCOCC3)c2)n1 (stereo not drawn) [Example 65, 1,1,1,3,3,3-Hexafluoropropan-2-yl 5-([1-ethyl-3-[3-(morpholin-4-yl)phenyl]-1H-pyrazol-4-yl]methyl)-octahydropyrrolo[3,4-c]pyrrole-2-carboxylate] | < 25 | < 25 | > 75 |  |  |  |  | 1000 to 10000 | 1000 to 10000 | < 100 | ≤ 25 |
| CCn1ncc(CN2CC3CN(C(=O)OC(C(F)(F)F)C(F)(F)F)CC3C2)c1C(=O)NC1CC1 (stereo not drawn) [Example 74] | 25 to 75 | < 25 | > 75 |  |  |  |  | 100 to 1000 | > 10000 | < 100 | 25 to 75 |
| Cn1cc(CN2CC3CN(C(=O)OC(C(F)(F)F)C(F)(F)F)CC3C2)c(-c2ccccc2Cl)n1 (stereo not drawn) [Example 51, 1,1,1,3,3,3-Hexafluoropropan-2-yl 5-[[3-(2-chlorophenyl)-1-methyl-1H-pyrazol-4-yl]methyl]-octahydropyrrolo[3,4-c]pyrrole-2-carboxylate] | 25 to 75 | < 25 | > 75 |  |  |  |  | 1000 to 10000 | > 10000 | < 100 | ≤ 25 |
